Drawing on ChEMBL document CHEMBL3853354, “Structure-activity relationships of proline modifications around the tetracyclic-indole class of NS5A inhibitors” (Bioorg Med Chem Lett, 2016), this text covers EC90 for 20 molecules.

Assay [1] deals with Hepatitis C virus subtype 1a. Briefly: Inhibition of NS5A in HCV genotype 1a assessed as reduction in replicon RNA level after 3 days by cell based RT-PCR method. Background: Replicon systems follow genome replication, usually without infectious particles.
Assay [2] has as its system Nonstructural protein 5A (Hepatitis C virus), Q5L478 [UNDEFINED MUTATION]. As to the kind of experiment: Inhibition of NS5A L31V mutant in HCV genotype 1a assessed as reduction in replicon RNA level after 3 days by cell based RT-PCR method. To be noted: Hepatitis C virus subtype 1a.
For assay [3], the system named is T1, Nonstructural protein 5A (Hepatitis C virus), Q5L478 [Y93H].
T1 sequence (whole entry): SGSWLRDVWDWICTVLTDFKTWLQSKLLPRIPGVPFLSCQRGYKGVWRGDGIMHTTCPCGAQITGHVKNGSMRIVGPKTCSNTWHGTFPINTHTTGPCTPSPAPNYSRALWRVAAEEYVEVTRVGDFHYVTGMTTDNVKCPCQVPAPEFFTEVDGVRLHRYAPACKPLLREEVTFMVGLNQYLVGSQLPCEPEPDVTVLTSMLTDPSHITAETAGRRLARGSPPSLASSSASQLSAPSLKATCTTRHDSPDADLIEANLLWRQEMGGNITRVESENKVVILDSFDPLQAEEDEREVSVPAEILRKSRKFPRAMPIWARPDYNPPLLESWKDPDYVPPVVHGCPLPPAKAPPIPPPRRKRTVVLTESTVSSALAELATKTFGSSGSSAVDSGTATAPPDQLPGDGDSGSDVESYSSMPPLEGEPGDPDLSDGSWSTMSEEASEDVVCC
As to the kind of experiment: Inhibition of NS5A Y93H mutant in HCV genotype 1a assessed as reduction in replicon RNA level after 3 days by cell based RT-PCR method. To be noted: Hepatitis C virus subtype 1a.

Assay [4] deals with Hepatitis C virus subtype 2b. Briefly: Inhibition of NS5A in HCV genotype 2b assessed as reduction in replicon RNA level after 3 days by cell based RT-PCR method.
The subject of assay [5] is Hepatitis C virus subtype 3a. Briefly: Inhibition of NS5A in HCV genotype 3a assessed as reduction in replicon RNA level after 3 days by cell based RT-PCR method.

As to `COC(=O)N[C@H](C(=O)N1[C@@H]2CCCC[C@@H]2C[C@H]1c1ncc(-c2cc(F)c3c(c2)OC(c2cccc(OC)c2)n2c-3cc3cc(-c4cnc([C@@H]5C[C@H]6CCCC[C@H]6N5C(=O)[C@@H](NC(=O)OC)C(C)C)[nH]4)ccc32)[nH]1)C(C)C` (stereo partly specified), the EC90 (usually the point of the concentration-response curve where the effect stands at 90%) in assay [1] came out at 0.18 nM; in assay [2], 0.51 nM; in assay [3], 37.6 nM; in assay [4] it was 21 nM.
As to `COC(=O)N[C@H](C(=O)N1C[C@H](OC)C[C@H]1c1ncc(-c2cc(F)c3c(c2)OC(c2cccc(OC)c2)n2c-3cc3cc(-c4cnc([C@@H]5C[C@@H](OC)CN5C(=O)[C@@H](NC(=O)OC)C(C)C)[nH]4)ccc32)[nH]1)C(C)C` (stereo partly specified), the EC90 in assay [1] came out at 0.015 nM; in assay [2], 0.19 nM; in assay [3] it was 0.79 nM; in assay [4], 90.7 nM; in assay [5], 5.52 nM.
On to `COC(=O)N[C@H](C(=O)N1[C@@H]2C[C@@H]2C[C@H]1c1ncc(-c2cc(F)c3c(c2)OC(c2cccc(OC)c2)n2c-3cc3cc(-c4cnc([C@@H]5C[C@H]6C[C@H]6N5C(=O)[C@@H](NC(=O)OC)C(C)C)[nH]4)ccc32)[nH]1)C(C)C` (stereo partly specified), for which the EC90 in assay [1] is 0.005 nM; in assay [2] it was 1.72 nM; in assay [3] it was 0.51 nM; in assay [4] it was 22.5 nM; in assay [5], 0.17 nM.
In the case of `COC(=O)N[C@H](C(=O)N1CC2(C[C@H]1c1ncc(-c3cc(F)c4c(c3)OC(c3cccc(OC)c3)n3c-4cc4cc(-c5cnc([C@@H]6CC7(CN6C(=O)[C@@H](NC(=O)OC)C(C)C)OCCCO7)[nH]5)ccc43)[nH]1)OCCCO2)C(C)C` (mixture of isomers), the EC90 in assay [1] turned out to be 0.018 nM; in assay [2] it was 0.2 nM; in assay [3] it was 0.44 nM; in assay [4], 114 nM; in assay [5], 15 nM.
`COC(=O)N[C@H](C(=O)N1[C@@H]2CC(F)(F)[C@@H]2C[C@H]1c1ncc(-c2cc(F)c3c(c2)OC(c2cccc(OC)c2)n2c-3cc3cc(-c4cnc([C@@H]5C[C@@H]6[C@@H](CC6(F)F)N5C(=O)[C@@H](NC(=O)OC)C(C)C)[nH]4)ccc32)[nH]1)C(C)C` (stereo partly specified): the EC90 turned out to be 0.017 nM in assay [1]; 0.078 nM in assay [2]; 52.6 nM in assay [3]; 58 nM in assay [4]; 0.29 nM in assay [5].
On the same counts, the results for `COC(=O)N[C@H](C(=O)N1CC[C@H](OC)[C@H]1c1ncc(-c2cc(F)c3c(c2)OC(c2cccc(OC)c2)n2c-3cc3cc(-c4cnc([C@@H]5[C@@H](OC)CCN5C(=O)[C@@H](NC(=O)OC)C(C)C)[nH]4)ccc32)[nH]1)C(C)C` (stereo partly specified) are 2.67 nM, 24.5 nM, 3.86 nM, 322 nM and 30 nM.
`COC(=O)N[C@H](C(=O)N1CCC[C@H]1c1ncc(-c2cc(F)c3c(c2)OC(c2cccc(OC)c2)n2c-3cc3cc(-c4cnc([C@@H]5C[C@@H](F)CN5C(=O)[C@@H](NC(=O)OC)C(C)C)[nH]4)ccc32)[nH]1)C(C)C` (stereo partly specified): the EC90 came to 0.01 nM in assay [1], 0.29 nM in assay [2], 1.81 nM in assay [3] and 33.6 nM in assay [4].
With `COC(=O)N[C@H](C(=O)N1CCC[C@H]1c1ncc(-c2cc(F)c3c(c2)OC(c2cccc(OC)c2)n2c-3cc3cc(-c4cnc([C@@H]5C[C@H]6C[C@H]6N5C(=O)[C@@H](NC(=O)OC)C(C)C)[nH]4)ccc32)[nH]1)C(C)C` (stereo partly specified), the EC90 was found to be 0.007 nM in assay [1]; 0.084 nM in assay [2]; 1.64 nM in assay [3]; 19.4 nM in assay [4]; 0.15 nM in assay [5].
For `COC(=O)N[C@H](C(=O)N1C[C@H](OC(F)F)C[C@H]1c1ncc(-c2cc(F)c3c(c2)OC(c2cccc(OC)c2)n2c-3cc3cc(-c4cnc([C@@H]5C[C@@H](OC(F)F)CN5C(=O)[C@@H](NC(=O)OC)C(C)C)[nH]4)ccc32)[nH]1)C(C)C` (stereo partly specified), the EC90 in assay [1] was determined as 0.021 nM; in assay [3], 5.27 nM; in assay [4], 55.6 nM; in assay [5] it was 12.9 nM.
For the molecule `COC(=O)N[C@H](C(=O)N1CCC[C@H]1c1ncc(-c2cc(F)c3c(c2)OC(c2ccccc2)n2c-3cc3cc(-c4cnc([C@H]5[C@@H]6[C@H](CN5C(=O)[C@@H](NC(=O)OC)C(C)C)C6(C)C)[nH]4)ccc32)[nH]1)C(C)C` (mixture of isomers), the EC90 was 0.02 nM in assay [1]; 21 nM in assay [2]; > 100 nM in assay [3]; 337 nM in assay [4]; > 10 nM in assay [5].
For the molecule `COC(=O)N[C@H](C(=O)N1CC2(CC2)C[C@H]1c1ncc(-c2cc(F)c3c(c2)OC(c2cccc(OC)c2)n2c-3cc3cc(-c4cnc([C@@H]5CC6(CC6)CN5C(=O)[C@@H](NC(=O)OC)C(C)C)[nH]4)ccc32)[nH]1)C(C)C` (stereo partly specified), the EC90 in assay [1] was found to be 0.011 nM; in assay [2], 0.05 nM; in assay [3], 23.7 nM; in assay [4] it was 38.8 nM; in assay [5], 0.16 nM.
`COC(=O)N[C@H](C(=O)N1C[C@H](F)C[C@H]1c1ncc(-c2cc(F)c3c(c2)OC(c2cccc(OC)c2)n2c-3cc3cc(-c4cnc([C@@H]5C[C@@H](F)CN5C(=O)[C@@H](NC(=O)OC)C(C)C)[nH]4)ccc32)[nH]1)C(C)C` (stereo partly specified): the EC90 in assay [1] is 0.006 nM; in assay [2] it was 1.59 nM; in assay [3], 0.065 nM; in assay [4] it was 39 nM.
Take `COC(=O)N[C@H](C(=O)N1CCC[C@H]1c1ncc(-c2cc(F)c3c(c2)OC(c2cccc(OC)c2)n2c-3cc3cc(-c4cnc([C@@H]5[C@H]6CC[C@H](C6)N5C(=O)[C@@H](NC(=O)OC)C(C)C)[nH]4)ccc32)[nH]1)C(C)C` (stereo partly specified): the EC90 in assay [1] worked out at 0.002 nM; in assay [2] it was 0.9 nM; in assay [3], 26.1 nM; in assay [4], 51.8 nM; in assay [5], 0.92 nM.
As for `COC(=O)N[C@H](C(=O)N1CCC[C@H]1c1ncc(-c2ccc3c(c2)cc2n3C(c3cccc(OC)c3)Oc3cc(-c4cnc([C@@H]5C[C@H]6C[C@H]6N5C(=O)[C@@H](NC(=O)OC)C(C)C)[nH]4)cc(F)c3-2)[nH]1)C(C)C` (stereo partly specified), the EC90 is 0.026 nM in assay [1], 0.36 nM in assay [2], 10.9 nM in assay [3] and 49.3 nM in assay [4].
On the same counts, the results for `COC(=O)N[C@H](C(=O)N1C[C@H](F)C[C@H]1c1ncc(-c2cc(F)c3c(c2)OC(c2cccc(OC)c2)n2c-3cc3cc(-c4cnc([C@@H]5C[C@H]6C[C@H]6N5C(=O)[C@@H](NC(=O)OC)C(C)C)[nH]4)ccc32)[nH]1)C(C)C` (stereo partly specified) are 0.032 nM, 0.92 nM, 5.15 nM and 52.2 nM.
In the case of `COC(=O)N[C@H](C(=O)N1CCC[C@H]1c1ncc(-c2ccc3c(c2)cc2n3C(c3cccc(OC)c3)Oc3cc(-c4cnc([C@@H]5C[C@@H](F)CN5C(=O)[C@@H](NC(=O)OC)C(C)C)[nH]4)cc(F)c3-2)[nH]1)C(C)C` (stereo partly specified), the EC90 in assay [1] was < 0.002 nM; in assay [2], 0.34 nM; in assay [3], 0.55 nM; in assay [4] it was 18.8 nM; in assay [5], 0.13 nM.
The matching figures for `COC(=O)N[C@H](C(=O)N1C[C@@H](OC)C[C@H]1c1ncc(-c2cc(F)c3c(c2)OC(c2cccc(OC)c2)n2c-3cc3cc(-c4cnc([C@@H]5C[C@H](OC)CN5C(=O)[C@@H](NC(=O)OC)C(C)C)[nH]4)ccc32)[nH]1)C(C)C` (stereo partly specified): 0.017 nM, 0.04 nM, 8.87 nM, 5.74 nM and 0.71 nM.
For the molecule `COC(=O)N[C@H](C(=O)N1C[C@H](F)C[C@H]1c1ncc(-c2cc(F)c3c(c2)OC(c2cccc(OC)c2)n2c-3cc3cc(-c4cnc([C@@H]5C[Si](C)(C)CN5C(=O)[C@@H](NC(=O)OC)C(C)C)[nH]4)ccc32)[nH]1)C(C)C` (stereo partly specified), the EC90 in assay [1] was 0.3 nM; in assay [2], 13.6 nM; in assay [3] it was 91.4 nM; in assay [4], 391 nM.
For `COC(=O)N[C@H](C(=O)N1C(C)CC[C@H]1c1ncc(-c2ccc3c(c2)OC(c2ccccc2)n2c-3cc3cc(-c4cnc([C@@H]5CCC(C)N5C(=O)[C@@H](NC(=O)OC)C(C)C)[nH]4)ccc32)[nH]1)C(C)C` (single isomer, unassigned; diastereomer A), the EC90 worked out at 1.72 nM in assay [2], 64 nM in assay [3], 75 nM in assay [4] and 6.14 nM in assay [5].
Take `COC(=O)N[C@H](C(=O)N1C(C)CC[C@H]1c1ncc(-c2ccc3c(c2)OC(c2ccccc2)n2c-3cc3cc(-c4cnc([C@@H]5CCC(C)N5C(=O)[C@@H](NC(=O)OC)C(C)C)[nH]4)ccc32)[nH]1)C(C)C` (single isomer, unassigned; diastereomer B): the EC90 was determined as 5.74 nM in assay [2], 158 nM in assay [3], 129 nM in assay [4] and 51.5 nM in assay [5].
